# Entries after “also recorded” stand apart in the source; their conditions may differ. No end group written: not given here.
# Columns and labels:
# [1] = system: microbiota of the intestine; assay: Prophylactic high fat diet murine model, 16S microbial analyses (Example 1); type: in vivo, mice
# From the text: The overall experimental design is shown in FIG. 1, top panel “Prophylactic study”. Mice: Mice were housed in trios, 4 cages per group. Feed intake was registered daily just before lights were turned off at 6 pm. Individual mice were subjected to experimental procedures in altered order both group and cage wise. Mice were kept at room temperature under a 12-hour light/dark cycle at SPF standard conditions. Diets: For dosing, the average weight was estimated to be 25 grams per mouse. Mice eat approximately 3 grams of feed per mouse per day.
# Treatment regime: Mice were fed either a high fat diet (HFD) or a low fat (LF) control diet. The HFD contained 4 subgroups; a) hBD-2, b) HD5, c) hBD-2/HD5 and d) standard HFD without supplementation of defensins. Defensin concentration was 1,2 mg hBD-2 per kg mouse per day. HD5 was given in equimolar concentration to hBD-2.
# Microbial analyses were carried out to study the microbiota of the intestine. Longitudinal 16S characterization was conducted on 4 paired samples from 60 mice, 240 samples in total. Each mouse was sampled prior to diet change, 1 week post diet change, 4 weeks post diet change and at termination, thus ensuring a thorough characterization of the faecal microbiota as a result of defensin treatment.
# BALB/c mice = assay: Murine model of acute graft versus host disease following stem cell transplantation, oral hBD-2 (Example 11); type: in vivo; details: for Intestinal T cell infiltration / Myeloid cell infiltration / Infiltration with CD45+ leucocytes: lamina propria; for Infiltration with CD45+ leucocytes: FACS analysis
# Procedure: Bone marrow was harvested: hind limbs harvested from 2 female WT C57BL/6 mice aseptically. Skeletal muscle was removed and epiphysis cut away. Lumen of bone flushed with PBS and cells pelleted and taken up. Harvest of T-cells: spleens from 2 female WT C57BL/6 mice were meshed through a […] cell strainer into a PBS filled dish. Cells were taken up in PBS and transferred into a 50 mL falcon tube and spun down. Cells were taken up in 1 mL PBS and 20 μL of CD4 microbead+20 μL CD8 microbeads per spleen added for incubation for 20 min at 4 degrees C. Cells were washed with PBS and applied to MACS separation in order to positively select CD4+ and CD8+ cells. Positively selected T-cells were counted and taken up. Transplantation: directly after the second irradiation, all WT BALB/c recipient mice were injected with 5×1.000.000 BM cells (50 μL) i.v. into the retroorbital venous plexus under isoflurane anesthesia. 15 BALB/c mice were treated with 1.2 mg of hBD2/kg BW/day in 100 μL PBS per day vial oral gavage from day 0-10.
# 15 BALB/c mice received vehicle 100 μL PBS per day via oral gavage from day 0-10.
# The mice were weighed daily for the initial 7 days and survival was monitored for 100 days.
# PBMC cells = assay: PBMC cell viability, Alamar Blue, 24 hours (Example 8); type: cell-based, human; details: 1, 10 and 40 μg/ml, 0.6 and 20.0 pg/ml LPS
# Procedure: FIG. 39. Cell viability of PBMC cells following exposure for 24 hours to Alamar Blue and HD5, hBD-1, hBD-2, hBD-3 and hBD-4 at concentrations of 1, 10 and 40 μg/ml.
# PBMC cell viability following exposure for 24 hours to Alamar Blue and HD5,hBD-1, hBD-2, hBD-3 and hBD-4 at concentrations of 1, 10 and 40 μg/ml at 0.6 and 20.0 pg/ml LPS respectively (FIG. 39).
# SCID mice = assay: Therapeutic, murine, 14 weeks, CD4+CD25+ T cell transfer induced colitis model (Example 4); type: in vivo
# From the text: Treatment regime: 70 female BALB/c mice housed in groups of five per cage were allocated to 7 different treatment groups. Colitis was induced in SCID mice by transplantation of CD4+CD25 Tcells from BALB/c mice. Lymphocytes isolated from spleen and lymph nodes from BALB/c mice were subjected to negative selection of CD4+Tcells. Afterwards, CD4+CD25+cells were positively isolated by binding to the beads from the CD4+Tcell suspensions and the CD4+CD25—were collected from the supernatant. The animals were treated with hBD-2, 0.1 mg/kg s.c. once daily 86consecutive days from day 7 (OD); 1 mg/kg s.c. OD or 3 mg/kg s.c. OD;with mouse anti TNFa 100 μg/mouse s.c. twice weekly (enbrel); with dexamethasone 0.3 mg/kg intraperitoneally OD (dex); with PBS s.c. as vehicle from day 7 and 86 consecutive days (vehicle) or sham treated (sham).
# Treatment groups: • 1. 0.1 mg/kg hBD-2, once daily subcutaneously (n=11) • 2. 1 mg/kg hBD-2, once daily subcutaneously (n=11) • 3. 3 mg/kg hBD-2, once daily subcutaneously (n=11) • 4. PBS (hBD-2 vehicle), once daily subcutaneously (n=11) • 5. 0.3 mg/kg Dexamethasone, once daily intraperitoneally (n=11) • 6. 100 μg/mouse soluble human 75-kilodalton TNF receptor linked to Fc portion of IgG1 (Enbrel), twice a week subcutaneously (n=11) • 7. Sham treated group (n=6)
# Clinical assessment was based on body weight loss, stool consistency and presence of blood per rectum. The animals were sacrificed on day 95 and colon removed for assessment of weight and myeloperoxidase activity.
# [2] = same three dosing regimens, sacrifice day 95
substance,measurement,setting,value
human beta defensin 2 (GIGDPVTCLKSGAICHPVFCPRRYKQIGTCGLPGTKCCKKP; ends and bridges not checked; cysteine pairing not given here; listed as Homo sapiens) [hBD-2],Abundance of Barnesiella,"[1]; colon, prophylactic treatment, p<0.03",statistically significant increase in abundance of Barnesiella
same,Abundance of Lactobacillus,"[1]; colon, prophylactic treatment, p=0.1",trend towards lower abundance of Lactobacillus
same,"Microbial presence and abundance (unifrac, genus analysis)","[1]; prophylactic oral defensin in HFD, 1,2 mg hBD-2 per kg per day, HD5 equimolar, mix 50%+50%",affected primarily the microbial presence
same,Mortality,"BALB/c mice; 15 mice oral hBD-2 for 10 days vs 15 mice PBS, p<0.0001",highly statistically significant reduction of mortality
same,Share of treated mice that had died by day 35,"BALB/c mice; 15 mice, 1.2 mg/kg BW/day oral gavage day 0-10",less than 30%
same,Mice that had died by day 35,"BALB/c mice; 15 mice, 1.2 mg/kg BW/day oral gavage day 0-10, all 15 vehicle mice had died by day 35",4
same,Mice still alive by day 100,"BALB/c mice; 15 mice, 1.2 mg/kg BW/day oral gavage day 0-10, p<0.0001",8
same,IL-1β from myeloid cells,BALB/c mice; FACS analysis of the spleen,Reduced IL-1B production in myeloid cells; also recorded: reduction of IL-1β from myeloid cells
same,Neutrophils,BALB/c mice; FACS analysis of the spleen,Reduced proportion of neutrophils; also recorded: reduced number of neutrophils
same,"Th1 cytokine production, IFN-γ","BALB/c mice; FACS analysis of the spleen, CD4, CD8 and CD69+CD4 T cells",reduced Th 1 cytokine production; also recorded: reduced Th1 cytokine production
same,"Th1 cytokine production, TNF-α","BALB/c mice; FACS analysis of the spleen, CD4 and CD8 T cells",reduced Th 1 cytokine production; also recorded: reduced Th1 cytokine production
same,Weight loss,BALB/c mice; first 7 days following bone marrow transplantation,lost statistically significantly less weight
same,Microarray analysis of colon samples,BALB/c mice; hBD-2 treated group versus PBS,"decreased inflammation, leucocyte and myeloid cell migration and tissue remodelling"
same,Intestinal T cell infiltration,BALB/c mice,Reduction of intestinal T cell and myeloid cell infiltration
same,Myeloid cell infiltration,BALB/c mice,Reduction of intestinal T cell and myeloid cell infiltration
same,Infiltration with CD45+ leucocytes,BALB/c mice,Reduced CD45+leucocyte cell migration
same,Infiltration with CD45+ leucocytes,BALB/c mice; listed as hBD2,reduced the infiltration
same,Intestinal T cell infiltration,BALB/c mice; listed as hBD2,reduced
same,Myeloid cell infiltration,BALB/c mice; listed as hBD2,reduced
same,IL-6 concentration,BALB/c mice; serum,reduction of TNF-α and IL-6 concentrations
same,IL-10 concentration,BALB/c mice; serum,increased concentration of IL-10
same,TNF-α concentration,BALB/c mice; serum,reduction of TNF-α and IL-6 concentrations
same,Histology score of the colon,BALB/c mice; vs PBS,statistically significant reduction of histology score; also recorded: highly statistically lower
same,Histology score of the liver,BALB/c mice; vs PBS,statistically significant reduction of histology score; also recorded: highly statistically lower
same,Histology score of the small intestine,BALB/c mice; vs PBS,statistically significant reduction of histology score; also recorded: highly statistically lower
same,Toxicity (PBMC cell viability),PBMC cells,not toxic irrespectively of concentration; also recorded: not to be toxic
same,"Clinical score (body weight loss, stool consistency, blood per rectum)","SCID mice; hBD-2 1 mg/kg s.c. OD, Dexamethasone 0.3 mg/kg i.p. OD, Enbrel 100 μg/mouse s.c. twice weekly, from day 7",statistically significant and similar effect on clinical score; also recorded: on par with 100 μg/mouse anti TNF-α s.c. twice weekly (Enbrel) and 0.3 mg/kg dexamethasone
same,Colon weight,SCID mice; [2],statistically significant and similar effect on colon weight; also recorded: on par with 100 μg/mouse anti TNF-α s.c. twice weekly (Enbrel) and 0.3 mg/kg dexamethasone
same,Myeloperoxidase activity in intestinal tissue,SCID mice; [2],statistically significant and similar effect; also recorded: on par with 100 μg/mouse anti TNF-α s.c. twice weekly (Enbrel) and 0.3 mg/kg dexamethasone
